Measurements as given in publication PMC10838953.

Assays:
MYLK4 = MYLK4 (Homo sapiens, UniProt Q86YV6); assay: biochemical; settings: read-out: %Ctrl @ 2000nM
PIK3CA(E545K) = PIK3CA(E545K) (Homo sapiens, UniProt P42336, E545K); assay: biochemical; settings: read-out: %Ctrl @ 2000nM
HIPK4 = HIPK4 (Homo sapiens, UniProt Q8NE63); assay: biochemical; settings: read-out: %Ctrl @ 2000nM
ERK5 = ERK5 (Homo sapiens, UniProt Q13164); assay: biochemical; settings: read-out: %Ctrl @ 2000nM
ICK = ICK (Homo sapiens, UniProt Q9UPZ9); assay: biochemical; settings: read-out: %Ctrl @ 2000nM
BRAF(V600E) = BRAF(V600E) (Homo sapiens, UniProt P15056, V600E); assay: biochemical; settings: read-out: %Ctrl @ 2000nM
CSK = CSK (Homo sapiens, UniProt P41240); assay: biochemical; settings: read-out: %Ctrl @ 2000nM
SGK3 = SGK3 (Homo sapiens, UniProt Q96BR1); assay: biochemical; settings: read-out: %Ctrl @ 2000nM
ACVRL1 = ACVRL1 (Homo sapiens, UniProt P37023); assay: biochemical; settings: read-out: %Ctrl @ 2000nM
WNK4 = WNK4 (Homo sapiens, UniProt Q96J92); assay: biochemical; settings: read-out: %Ctrl @ 2000nM
CAMK2A = CAMK2A (Homo sapiens, UniProt Q9UQM7); assay: biochemical; settings: read-out: %Ctrl @ 2000nM
STK33 = STK33 (Homo sapiens, UniProt Q9BYT3); assay: biochemical; settings: read-out: %Ctrl @ 2000nM
[1] = biological target: ABL1(E255K)-phosphorylated (Homo sapiens, UniProt P00519, E255K); assay: biochemical; settings: read-out: %Ctrl @ 2000nM
FGFR3 = FGFR3 (Homo sapiens, UniProt P22607); assay: biochemical; settings: read-out: %Ctrl @ 2000nM
CSNK1E = CSNK1E (Homo sapiens, UniProt P49674); assay: biochemical; settings: read-out: %Ctrl @ 2000nM
LZK = LZK (Homo sapiens, UniProt O43283); assay: biochemical; settings: read-out: %Ctrl @ 2000nM
[2] = biological target: EGFR(L747-E749del, A750P) (Homo sapiens, UniProt P00533, A750P/DEL747-749); assay: biochemical; settings: read-out: %Ctrl @ 2000nM
CDK8 = CDK8 (Homo sapiens, UniProt P49336); assay: biochemical; settings: read-out: %Ctrl @ 2000nM
PRKCI = PRKCI (Homo sapiens, UniProt P41743); assay: biochemical; settings: read-out: %Ctrl @ 2000nM
ADCK4 = ADCK4 (Homo sapiens, UniProt Q96D53); assay: biochemical; settings: read-out: %Ctrl @ 2000nM
YES = YES (Homo sapiens, UniProt P07947); assay: biochemical; settings: read-out: %Ctrl @ 2000nM
SRPK3 = SRPK3 (Homo sapiens, UniProt Q9UPE1); assay: biochemical; settings: read-out: %Ctrl @ 2000nM
MARK1 = MARK1 (Homo sapiens, UniProt Q9P0L2); assay: biochemical; settings: read-out: %Ctrl @ 2000nM
PKMYT1 = PKMYT1 (Homo sapiens, UniProt Q99640); assay: biochemical; settings: read-out: %Ctrl @ 2000nM
BRK = BRK (Homo sapiens, UniProt Q13882); assay: biochemical; settings: read-out: %Ctrl @ 2000nM
PIK3CD = PIK3CD (Homo sapiens, UniProt O00329); assay: biochemical; settings: read-out: %Ctrl @ 2000nM
[3] = biological target: RPS6KA5(Kin.Dom.2-C-terminal) (Homo sapiens, UniProt O75582); assay: biochemical
EPHB6 = EPHB6 (Homo sapiens, UniProt O15197); assay: biochemical; settings: read-out: %Ctrl @ 2000nM
CLK1 = CLK1 (Homo sapiens, UniProt P49759); assay: biochemical; settings: read-out: %Ctrl @ 2000nM
[4] = biological target: ABL1(F317I)-nonphosphorylated (Homo sapiens, UniProt P00519, F317I); assay: biochemical; settings: read-out: %Ctrl @ 2000nM
MAP4K2 = MAP4K2 (Homo sapiens, UniProt Q12851); assay: biochemical; settings: read-out: %Ctrl @ 2000nM
NEK1 = NEK1 (Homo sapiens, UniProt Q96PY6); assay: biochemical; settings: read-out: %Ctrl @ 2000nM
PAK3 = PAK3 (Homo sapiens, UniProt O75914); assay: biochemical; settings: read-out: %Ctrl @ 2000nM
DAPK3 = DAPK3 (Homo sapiens, UniProt O43293); assay: biochemical; settings: read-out: %Ctrl @ 2000nM
EGFR = EGFR (Homo sapiens, UniProt P00533); assay: biochemical; settings: read-out: %Ctrl @ 2000nM
PRKCD = PRKCD (Homo sapiens, UniProt Q05655); assay: biochemical; settings: read-out: %Ctrl @ 2000nM
CSNK1G3 = CSNK1G3 (Homo sapiens, UniProt Q9Y6M4); assay: biochemical; settings: read-out: %Ctrl @ 2000nM
MLK2 = MLK2 (Homo sapiens, UniProt Q02779); assay: biochemical; settings: read-out: %Ctrl @ 2000nM
[5] = biological target: TYK2(JH2domain-pseudokinase) (Homo sapiens, UniProt P29597); assay: biochemical; settings: read-out: %Ctrl @ 2000nM
EPHA6 = EPHA6 (Homo sapiens, UniProt Q9UF33); assay: biochemical; settings: read-out: %Ctrl @ 2000nM
IKK-beta = IKK-beta (Homo sapiens, UniProt O14920); assay: biochemical; settings: read-out: %Ctrl @ 2000nM

RPS6KA5(Kin.Dom.2-C-terminal), sequence (O75582 388-802 limits assumed): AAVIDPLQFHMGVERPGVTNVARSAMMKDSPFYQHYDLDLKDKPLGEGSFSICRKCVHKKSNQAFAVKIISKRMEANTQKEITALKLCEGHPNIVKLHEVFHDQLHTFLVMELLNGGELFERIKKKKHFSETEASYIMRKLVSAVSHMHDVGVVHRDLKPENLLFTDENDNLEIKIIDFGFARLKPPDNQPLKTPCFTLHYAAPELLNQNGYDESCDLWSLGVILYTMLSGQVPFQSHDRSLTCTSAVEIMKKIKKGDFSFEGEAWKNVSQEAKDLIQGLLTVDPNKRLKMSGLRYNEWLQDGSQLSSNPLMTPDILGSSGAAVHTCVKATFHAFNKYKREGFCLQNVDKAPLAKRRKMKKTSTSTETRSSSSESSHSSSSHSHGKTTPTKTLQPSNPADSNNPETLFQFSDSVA
LZK, sequence (O43283 whole entry): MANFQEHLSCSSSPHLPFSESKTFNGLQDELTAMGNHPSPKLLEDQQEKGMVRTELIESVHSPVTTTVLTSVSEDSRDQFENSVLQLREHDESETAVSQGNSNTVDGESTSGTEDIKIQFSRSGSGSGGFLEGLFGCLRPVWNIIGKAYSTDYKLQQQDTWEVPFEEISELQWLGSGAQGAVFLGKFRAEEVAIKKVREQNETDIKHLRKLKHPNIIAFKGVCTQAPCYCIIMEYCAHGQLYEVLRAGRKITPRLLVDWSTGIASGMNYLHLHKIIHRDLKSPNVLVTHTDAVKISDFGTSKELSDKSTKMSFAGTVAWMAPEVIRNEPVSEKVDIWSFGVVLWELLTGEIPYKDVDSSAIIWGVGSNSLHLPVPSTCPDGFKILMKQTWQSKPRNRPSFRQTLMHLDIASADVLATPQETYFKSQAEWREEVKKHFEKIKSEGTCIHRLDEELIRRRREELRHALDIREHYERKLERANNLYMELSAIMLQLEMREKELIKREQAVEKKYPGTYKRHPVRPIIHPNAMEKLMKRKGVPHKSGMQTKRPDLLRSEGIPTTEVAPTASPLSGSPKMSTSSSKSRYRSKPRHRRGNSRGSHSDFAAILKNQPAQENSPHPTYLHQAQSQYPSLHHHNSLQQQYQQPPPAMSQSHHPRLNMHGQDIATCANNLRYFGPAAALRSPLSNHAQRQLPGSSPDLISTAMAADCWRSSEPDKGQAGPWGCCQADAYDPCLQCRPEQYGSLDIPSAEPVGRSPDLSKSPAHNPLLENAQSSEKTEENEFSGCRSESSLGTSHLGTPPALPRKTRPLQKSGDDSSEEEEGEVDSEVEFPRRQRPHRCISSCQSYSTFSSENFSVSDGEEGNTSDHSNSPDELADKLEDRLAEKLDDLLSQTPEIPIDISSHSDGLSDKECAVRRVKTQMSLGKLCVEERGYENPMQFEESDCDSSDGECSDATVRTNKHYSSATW
SRPK3, sequence (Q9UPE1 whole entry): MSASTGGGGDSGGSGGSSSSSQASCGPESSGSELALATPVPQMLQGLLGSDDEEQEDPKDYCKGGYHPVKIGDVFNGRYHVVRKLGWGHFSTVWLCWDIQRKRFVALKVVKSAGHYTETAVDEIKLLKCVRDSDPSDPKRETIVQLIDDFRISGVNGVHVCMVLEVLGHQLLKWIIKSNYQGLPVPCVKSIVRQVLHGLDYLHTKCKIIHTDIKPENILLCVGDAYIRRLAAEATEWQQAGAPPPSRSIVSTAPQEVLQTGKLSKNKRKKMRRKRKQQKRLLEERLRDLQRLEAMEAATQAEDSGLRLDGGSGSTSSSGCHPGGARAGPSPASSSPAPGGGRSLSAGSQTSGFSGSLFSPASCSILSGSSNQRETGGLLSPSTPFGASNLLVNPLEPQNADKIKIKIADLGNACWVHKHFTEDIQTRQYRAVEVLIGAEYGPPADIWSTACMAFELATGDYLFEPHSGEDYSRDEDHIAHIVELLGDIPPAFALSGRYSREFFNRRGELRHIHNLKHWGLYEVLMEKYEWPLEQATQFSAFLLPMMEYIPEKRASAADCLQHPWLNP
CLK1, sequence (P49759 whole entry): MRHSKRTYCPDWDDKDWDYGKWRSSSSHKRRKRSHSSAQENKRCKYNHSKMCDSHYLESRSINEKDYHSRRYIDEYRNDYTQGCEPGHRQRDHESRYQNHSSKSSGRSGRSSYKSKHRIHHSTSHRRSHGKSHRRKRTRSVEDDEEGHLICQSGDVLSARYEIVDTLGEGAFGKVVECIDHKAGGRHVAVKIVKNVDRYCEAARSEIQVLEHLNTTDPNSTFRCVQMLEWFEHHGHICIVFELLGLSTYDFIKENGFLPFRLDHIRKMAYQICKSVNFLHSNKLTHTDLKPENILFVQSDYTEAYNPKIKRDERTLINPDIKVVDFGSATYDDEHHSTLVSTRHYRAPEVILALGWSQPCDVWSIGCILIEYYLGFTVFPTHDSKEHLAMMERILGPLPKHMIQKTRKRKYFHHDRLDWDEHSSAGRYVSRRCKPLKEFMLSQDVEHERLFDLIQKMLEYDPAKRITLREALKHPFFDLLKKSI
EPHA6, sequence (Q9UF33 23-1036): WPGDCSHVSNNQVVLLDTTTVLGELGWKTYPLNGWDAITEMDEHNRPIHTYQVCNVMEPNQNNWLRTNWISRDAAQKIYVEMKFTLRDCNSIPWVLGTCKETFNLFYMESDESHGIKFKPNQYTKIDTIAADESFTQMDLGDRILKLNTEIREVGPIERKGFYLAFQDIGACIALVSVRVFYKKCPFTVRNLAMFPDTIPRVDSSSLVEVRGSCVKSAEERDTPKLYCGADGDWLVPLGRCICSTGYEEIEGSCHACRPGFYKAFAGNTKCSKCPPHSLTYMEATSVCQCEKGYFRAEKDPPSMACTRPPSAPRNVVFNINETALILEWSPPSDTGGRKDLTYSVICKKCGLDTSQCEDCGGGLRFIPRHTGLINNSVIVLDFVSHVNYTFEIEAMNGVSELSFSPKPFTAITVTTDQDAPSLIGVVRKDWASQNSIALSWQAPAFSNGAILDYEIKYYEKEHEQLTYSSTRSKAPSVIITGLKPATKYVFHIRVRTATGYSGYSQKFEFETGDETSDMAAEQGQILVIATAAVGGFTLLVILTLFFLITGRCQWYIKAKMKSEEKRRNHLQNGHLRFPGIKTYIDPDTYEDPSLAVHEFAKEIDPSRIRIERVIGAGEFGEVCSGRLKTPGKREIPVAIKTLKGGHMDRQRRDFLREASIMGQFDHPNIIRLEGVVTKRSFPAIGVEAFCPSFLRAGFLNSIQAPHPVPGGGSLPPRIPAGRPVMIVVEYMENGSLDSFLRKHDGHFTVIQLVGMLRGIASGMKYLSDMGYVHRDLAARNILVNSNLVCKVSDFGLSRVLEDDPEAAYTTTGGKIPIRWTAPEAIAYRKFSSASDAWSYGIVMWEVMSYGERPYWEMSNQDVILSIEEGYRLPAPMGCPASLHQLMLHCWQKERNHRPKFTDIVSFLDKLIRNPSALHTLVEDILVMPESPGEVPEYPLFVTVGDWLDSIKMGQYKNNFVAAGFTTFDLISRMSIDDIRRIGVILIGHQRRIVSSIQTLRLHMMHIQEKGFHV
PRKCD, sequence (Q05655 whole entry): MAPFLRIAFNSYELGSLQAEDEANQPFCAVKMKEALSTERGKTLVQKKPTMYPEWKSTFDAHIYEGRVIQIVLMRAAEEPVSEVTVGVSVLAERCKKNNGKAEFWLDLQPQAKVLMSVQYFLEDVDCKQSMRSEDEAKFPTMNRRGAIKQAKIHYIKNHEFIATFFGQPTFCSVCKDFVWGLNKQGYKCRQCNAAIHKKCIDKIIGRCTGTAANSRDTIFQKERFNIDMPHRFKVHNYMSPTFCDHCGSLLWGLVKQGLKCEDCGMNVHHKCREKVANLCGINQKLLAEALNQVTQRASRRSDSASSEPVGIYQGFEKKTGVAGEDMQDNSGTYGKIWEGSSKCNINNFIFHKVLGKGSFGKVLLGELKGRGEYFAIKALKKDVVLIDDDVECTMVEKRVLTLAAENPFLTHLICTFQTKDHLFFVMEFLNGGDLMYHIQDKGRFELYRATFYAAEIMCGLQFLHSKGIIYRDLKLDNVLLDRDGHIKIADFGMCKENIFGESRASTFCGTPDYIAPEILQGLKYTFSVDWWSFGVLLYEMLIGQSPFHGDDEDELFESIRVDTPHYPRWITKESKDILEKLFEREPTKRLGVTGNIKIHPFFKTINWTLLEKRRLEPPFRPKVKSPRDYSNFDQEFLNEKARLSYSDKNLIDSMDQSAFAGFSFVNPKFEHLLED
EGFR(L747-E749del, A750P), sequence (P00533 with tags, fused parts or gaps DEL747-749/A750P limits assumed): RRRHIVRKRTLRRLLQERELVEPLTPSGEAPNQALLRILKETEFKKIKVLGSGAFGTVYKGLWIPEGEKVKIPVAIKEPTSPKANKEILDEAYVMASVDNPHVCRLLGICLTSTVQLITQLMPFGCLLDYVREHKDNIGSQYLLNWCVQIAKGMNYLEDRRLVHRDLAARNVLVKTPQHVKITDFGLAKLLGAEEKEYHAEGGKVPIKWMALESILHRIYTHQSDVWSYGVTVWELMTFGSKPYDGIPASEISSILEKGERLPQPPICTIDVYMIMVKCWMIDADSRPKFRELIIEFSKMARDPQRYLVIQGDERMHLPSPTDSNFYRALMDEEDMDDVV
CSK, sequence (P41240 whole entry): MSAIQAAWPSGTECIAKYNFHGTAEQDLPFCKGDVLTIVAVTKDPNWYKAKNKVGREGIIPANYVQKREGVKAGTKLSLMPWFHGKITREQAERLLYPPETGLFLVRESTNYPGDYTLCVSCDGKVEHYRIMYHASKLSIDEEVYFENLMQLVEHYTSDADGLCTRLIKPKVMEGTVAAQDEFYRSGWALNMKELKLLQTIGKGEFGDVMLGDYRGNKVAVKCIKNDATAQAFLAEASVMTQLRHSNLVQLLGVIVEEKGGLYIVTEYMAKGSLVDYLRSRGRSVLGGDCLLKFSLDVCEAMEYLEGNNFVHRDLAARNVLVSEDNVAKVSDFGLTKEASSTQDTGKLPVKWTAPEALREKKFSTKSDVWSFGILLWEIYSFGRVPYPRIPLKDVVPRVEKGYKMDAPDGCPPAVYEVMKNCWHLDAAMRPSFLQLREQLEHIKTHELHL

## CC(C)COC(=O)c1[nH]c2ccc(F)cc2c1-c1cn(CC2CCN(CCNS(=O)(=O)c3ccc(CC(C)C)cc3)CC2)nn1 [AB668, isobutyl 5-fluoro-3-(1-((1-(2-((4-isobutylphenyl)sulfonamido)ethyl)piperidin-4-yl)methyl)-1H-1,2,3-triazol-4-yl)-1H-indole-2-carboxylate]
MYLK4
  remaining activity at 2 µM: 100%
PIK3CA(E545K)
  remaining activity at 2 µM: 88%
HIPK4
  remaining activity at 2 µM: 87%
ERK5
  remaining activity at 2 µM: 88%
ICK
  remaining activity at 2 µM: 100%
BRAF(V600E)
  remaining activity at 2 µM: 100%
CSK
  remaining activity at 2 µM: 95%
SGK3
  remaining activity at 2 µM: 99%
ACVRL1
  remaining activity at 2 µM: 90%
WNK4
  remaining activity at 2 µM: 96%
CAMK2A
  remaining activity at 2 µM: 96%
STK33
  remaining activity at 2 µM: 67%
[1]
  remaining activity at 2 µM: 67%
FGFR3
  remaining activity at 2 µM: 89%
CSNK1E
  remaining activity at 2 µM: 66%
LZK
  remaining activity at 2 µM: 100%
[2]
  remaining activity at 2 µM: 90%
CDK8
  remaining activity at 2 µM: 81%
PRKCI
  remaining activity at 2 µM: 85%
ADCK4
  remaining activity at 2 µM: 80%
YES
  remaining activity at 2 µM: 100%
SRPK3
  remaining activity at 2 µM: 100%
MARK1
  remaining activity at 2 µM: 79%
PKMYT1
  remaining activity at 2 µM: 70%
BRK
  remaining activity at 2 µM: 72%
PIK3CD
  remaining activity at 2 µM: 91%
[3]; read-out: %Ctrl @ 2000nM
  remaining activity at 2 µM: 43%
[3]; read-out: percentage inhibition
  inhibition at 2 µM: > 50%
EPHB6
  remaining activity at 2 µM: 82%
CLK1
  remaining activity at 2 µM: 67%
[4]
  remaining activity at 2 µM: 79%
MAP4K2
  remaining activity at 2 µM: 100%
NEK1
  remaining activity at 2 µM: 73%
PAK3
  remaining activity at 2 µM: 95%
Primary hepatocytes
  cytotoxicity: no cytotoxicity
DAPK3
  remaining activity at 2 µM: 100%
CK2 in 786-O cells
  CK2 inhibition 8 h after inhibitor removal: persisted
EGFR
  remaining activity at 2 µM: 92%
PRKCD
  remaining activity at 2 µM: 91%
CSNK1G3
  remaining activity at 2 µM: 67%
MLK2
  remaining activity at 2 µM: 73%
[5]
  remaining activity at 2 µM: 100%
EPHA6
  remaining activity at 2 µM: 83%
IKK-beta
  remaining activity at 2 µM: 91%
